Data set [1] is described as follows: Metabolic stability in rat liver microsomes after 5 to 180 mins by HPLC-UV analysis. In kind it is ADME. (In general: Liver microsomes are a subcellular fraction often used to study metabolism.)
Data set [2] is described as follows: Half life in rat liver microsomes at 100 uM after 5 to 180 mins by HPLC-UV analysis. Format: ADME.

By half-life is commonly meant the time needed for the level to fall by half in the phase considered. With `Oc1c(I)cc(Cl)c2cccnc12` [CLIOQUINOL], in data set [1], the k el is 0.000331 s⁻¹. The half-life at 100 µM in data set [2] stood at 34.8 min.

Regarding `COc1cc2c(cc1OC)C(=O)C(CC1CCN(Cc3ccccc3)CC1)C2` (stereo unspecified) [DONEPEZIL], in data set [1], the k el was 0.000149 s⁻¹. Further, in data set [2], the half-life at 100 µM is 73.3 min.

In data set [1], `C[C@]12CC[C@H]3[C@@H](CCC4=CC(=O)CC[C@@]43C)[C@@H]1CC[C@@H]2O` [TESTOSTERONE] had a k el of 0.00525 s⁻¹. In data set [2], this compound had a half-life at 100 µM of 2.1 min.
